Measured values from patent US20040157738A1, “Novel oxygen containing fused cyclic derivatives and herbicidal, desiccant and defoliate compositions containing them” (ISHIHARA SANGYO KAISHA, LTD., priority 2003, published 2004).

What was measured:
Format in all cases: in vivo
[1] = system: barnyardgrass (Echinochloa crus-galli L.): ECHCC; test: Test Example 1: pre-emergence herbicidal activity (growth controlling degree); details: 20th to 21st day after application
Description: (§1) Upland field soil was put into a 1/170,000 ha pot, and seeds of various plants [1. barnyardgrass (Echinochloa crus-galli L.): ECHCC, 2. crabgrass (Digitaria sanguinalis L.): DIGSA, 3. green foxtail (Setaria viridis L.): SETVI, 4. redroot pigweed (Amaranthus retroflexus L.): AMARE, 5. prickly sida (Sida spinosa L.): SIDSP, 6. velvetleaf (Abutilon theophrasti): ABUTH, 7. common cocklebur (Xanthium strumarium L.): XANST, 8. rice (Oryza sativa L.): ORYSA, 9. wheat (Triticum aestivum L.): TRZAX, 10. corn (Zea mays L.): ZEAMX, 11. soybean (Glycine max Merr.): GLXMA] were sown. Then, one day after the sowing, a wettable powder or emulsifiable concentrate having the compound of the present invention formulated in accordance with a usual formulation method, was weighed so that the active ingredient would be a predetermined amount, and diluted with water in an amount of 500 L/ha. The herbicide adjusted was applied by a small size sprayer for pre-emergence treatment. On the 20th to 21st day after the application of the herbicide, the growth of the respective plants was visually observed, and the herbicidal effects were evaluated by growth controlling degrees (%) ranging from 0 (equivalent to the untreated control) to 100 (complete kill), whereby the results shown in Table 11, were obtained. Compound Nos. in Table 11 correspond to Compound Nos. in Table 1 to 7 given hereinbefore.

[2] = system: rice (Oryza sativa L.): ORYSA; test: as above; details: 20th to 21st day after application
Description: as §1

[3] = system: green foxtail (Setaria viridis L.): SETVI; test: as above; details: 20th to 21st day after application
Description: as §1

[4] = system: corn (Zea mays L.): ZEAMX; test: as above; details: 20th to 21st day after application
Description: as §1

[5] = system: prickly sida (Sida spinosa L.): SIDSP; test: as above; details: 20th to 21st day after application
Description: as §1

[6] = system: redroot pigweed (Amaranthus retroflexus L.): AMARE; test: as above; details: 20th to 21st day after application
Description: as §1

[7] = system: soybean (Glycine max Merr.): GLXMA; test: as above; details: 20th to 21st day after application
Description: as §1

[8] = system: crabgrass (Digitaria sanguinalis L.): DIGSA; test: as above; details: 20th to 21st day after application
Description: as §1

[9] = system: velvetleaf (Abutilon theophrasti): ABUTH; test: as above; details: 20th to 21st day after application
Description: as §1

[10] = system: common cocklebur (Xanthium strumarium L.): XANST; test: as above; details: 20th to 21st day after application
Description: as §1

[11] = system: barnyardgrass (Echinochloa crus-galli L.), ECHCG; test: Test Example 2: post-emergence (foliage treatment) herbicidal activity (growth controlling degree); details: Echinochloa crus-galli, 504 h, 1.8-2.4 leaf stage; for pest or weed control at 63 g/ha: 63 g a.i./ha; for pest or weed control at 31 g/ha: 31 g a.i./ha
Description: (§2) Upland field soil was put into a 1/170,000 ha pot, and seeds of various plants were sown. Then, when the plants reached predetermined leaf stages [I. barnyardgrass (Echinochloa crus-galli L.), ECHCG: 1.8-2.4 leaf stage, 2. crabgrass (Digitaria sanguinalis L.), DIGSA: 1.5-2.2 leaf stage, 3. green foxtail (Setaria viridis L.), SETVI: 1.7-2.5 leaf stage, 4. redroot pigweed (Amaranthus retroflexus L.), AMARE: 0.1-0.3 leaf stage, 5. prickly sida (Sida spinosa L.), SIDSP: 0.3-0.5 leaf stage, 6. velvetleaf (Abutilon theophrasti), ABUTH: 0.3-0.4 leaf stage, 7. common cocklebur (Xanthium strumarium L.), XANST: 0.2-0.6 leaf stage, 8. rice (Oryza sativa L.), ORYSA: 1.6-2.2 leaf stage, 9. wheat (Triticum aestivum L.), TRZAX: 2.8 leaf stage, 10. corn (Zea mays L.), ZEAMX: 2.2-2.5 leaf stage, 11. soybean (Glycine max Merr.), GLXMA: 0.2-0.3 leaf stage], a wettable powder or emulsifiable concentrate having the compound of the present invention formulated in accordance with a usual formulation method, was weighed so that the active ingredient would be a predetermined amount, and diluted with water in an amount of 500 L/ha. To the diluted solution, 0.1%(v/v) of an agricultural spreader was added. The herbicide adjusted was applied by a small size sprayer for foliage treatment. On the […] day after the application of the herbicide, the growth of the respective plants was visually observed, and the herbicidal effects were evaluated by growth controlling degrees (%) ranging from 0 (equivalent to the untreated control) to 100 (complete kill), whereby the results shown in Table 12, were obtained. Compound Nos. in Table 12 correspond to Compound Nos. in Table 1 to 7 given hereinbefore.

[12] = system: rice (Oryza sativa L.), ORYSA; test: as above; details: Oryza sativa, 504 h, 1.6-2.2 leaf stage; for plant injury at 63 g/ha: 63 g a.i./ha; for plant injury at 31 g/ha: 31 g a.i./ha
Description: as §2

[13] = system: corn (Zea mays L.), ZEAMX; test: as above; details: Zea mays, 504 h, 2.2-2.5 leaf stage; for plant injury at 63 g/ha: 63 g a.i./ha; for plant injury at 31 g/ha: 31 g a.i./ha
Description: as §2

[14] = system: common cocklebur (Xanthium strumarium L.), XANST; test: as above; details: Xanthium strumarium, 504 h, 0.2-0.6 leaf stage; for pest or weed control at 63 g/ha: 63 g a.i./ha; for pest or weed control at 31 g/ha: 31 g a.i./ha
Description: as §2

[15] = system: soybean (Glycine max Merr.), GLXMA; test: as above; details: Glycine max, 504 h, 0.2-0.3 leaf stage; for pest or weed control at 63 g/ha: 63 g a.i./ha; for pest or weed control at 31 g/ha: 31 g a.i./ha
Description: as §2

[16] = system: crabgrass (Digitaria sanguinalis L.), DIGSA; test: as above; details: Digitaria sanguinalis, 504 h, 1.5-2.2 leaf stage, read-out: growth controlling degree, DIGSP; for pest or weed control at 63 g/ha: 63 g a.i./ha; for pest or weed control at 31 g/ha: 31 g a.i./ha
Description: as §2

[17] = system: redroot pigweed (Amaranthus retroflexus L.), AMARE; test: as above; details: 0.1-0.3 leaf stage
Description: as §2

[18] = system: velvetleaf (Abutilon theophrasti), ABUTH; test: as above; details: Abutilon theophrasti, 504 h, 0.3-0.4 leaf stage; for pest or weed control at 63 g/ha: 63 g a.i./ha; for pest or weed control at 31 g/ha: 31 g a.i./ha
Description: as §2

[19] = system: prickly sida (Sida spinosa L.), SIDSP; test: as above; details: Sida spinosa, 504 h, 0.3-0.5 leaf stage; for pest or weed control at 63 g/ha: 63 g a.i./ha; for pest or weed control at 31 g/ha: 31 g a.i./ha
Description: as §2

[20] = system: green foxtail (Setaria viridis L.), SETVI; test: as above; details: Setaria viridis, 504 h, 1.7-2.5 leaf stage; for pest or weed control at 63 g/ha: 63 g a.i./ha; for pest or weed control at 31 g/ha: 31 g a.i./ha
Description: as §2

Row | Compound | growth controlling degree, ECHCG ([1]; 125 g a.i./ha) [%] | growth controlling degree, ORYSA ([2]; 125 g a.i./ha) [%] | growth controlling degree, SETVI ([3]; 125 g a.i./ha) [%] | growth controlling degree, ZEAMX ([4]; 125 g a.i./ha) [%] | pest or weed control at 63 g/ha [11] [%] | plant injury at 63 g/ha [12] [%] | plant injury at 63 g/ha [13] [%] | pest or weed control at 63 g/ha [14] [%] | pest or weed control at 63 g/ha [15] [%] | pest or weed control at 63 g/ha [16] [%] | pest or weed control at 63 g/ha [18] [%] | pest or weed control at 63 g/ha [19] [%] | pest or weed control at 63 g/ha [20] [%] | growth controlling degree, ECHCG ([1]; 250 g a.i./ha) [%] | growth controlling degree, ORYSA ([2]; 250 g a.i./ha) [%] | growth controlling degree, ZEAMX ([4]; 250 g a.i./ha) [%] | growth controlling degree, SIDSP ([5]; 250 g a.i./ha) [%] | growth controlling degree, AMARE ([6]; 250 g a.i./ha) [%] | growth controlling degree, GLXMA ([7]; 250 g a.i./ha) [%] | growth controlling degree, ABUTH ([9]; 250 g a.i./ha) [%] | other results
1 | Cn1nc(-c2c(F)cc(Cl)c3c2CCCO3)c(Cl)c1C(F)(F)F [Compound 1-2, 4-chloro-3-(8-chloro-6-fluoro-3,4-dihydro-2H-1-benzopyran-5-yl)-1-methyl-5-(trifluoromethyl)-1H-pyrazole] | 100 | 20 | 100 | 10 | 98 | 50 | 60 | 100 | 60 | 60 | 100 | 98 | 70 |  |  |  |  |  |  |  | growth controlling degree, SIDSP ([5]; 125 g a.i./ha): 100%; growth controlling degree, AMARE ([6]; 125 g a.i./ha): 100%; growth controlling degree, GLXMA ([7]; 125 g a.i./ha): 10%; growth controlling degree, DIGSP ([8]; 125 g a.i./ha): 100%; growth controlling degree, ABUTH ([9]; 125 g a.i./ha): 100%; growth controlling degree, XANST ([10]; 125 g a.i./ha): 100%; growth controlling degree, AMARE ([17]; 63 g a.i./ha): 100%
2 | CC1CCc2c(c(Cl)cc(F)c2-c2nn(C)c(C(F)(F)F)c2Cl)O1 (stereo not drawn) [Compound 1-8] |  |  |  |  |  |  |  |  |  |  |  |  |  | 50 | 20 | 10 | 98 | 100 | 10 | 100 | growth controlling degree, SETVI ([3]; 250 g a.i./ha): 95%; growth controlling degree, DIGSP ([8]; 250 g a.i./ha): 98%; growth controlling degree, XANST ([10]; 250 g a.i./ha): 10%; pest or weed control at 31 g/ha [11]: 0%; plant injury at 31 g/ha [12]: 40%; plant injury at 31 g/ha [13]: 50%; pest or weed control at 31 g/ha [14]: 70%; pest or weed control at 31 g/ha [15]: 40%; pest or weed control at 31 g/ha [16]: 10%; growth controlling degree, AMARE ([17]; 31 g a.i./ha): 95%; pest or weed control at 31 g/ha [18]: 100%; pest or weed control at 31 g/ha [19]: 80%; pest or weed control at 31 g/ha [20]: 30%
3 | Cn1nc(-c2c(F)cc(Cl)c3c2CCCO3)c(Cl)c1OC(F)F [Compound 1-33, 4-chloro-3-(8-chloro-6-fluoro-3,4-dihydro-2H-1-benzopyran-5-yl)-5-(difluoromethoxy)-1-methyl-1H-pyrazole] | 100 | 70 | 100 | 100 | 100 | 98 | 100 | 100 | 100 | 100 | 100 | 100 | 100 |  |  |  |  |  |  |  | growth controlling degree, SIDSP ([5]; 125 g a.i./ha): 100%; growth controlling degree, AMARE ([6]; 125 g a.i./ha): 100%; growth controlling degree, GLXMA ([7]; 125 g a.i./ha): 40%; growth controlling degree, DIGSP ([8]; 125 g a.i./ha): 100%; growth controlling degree, ABUTH ([9]; 125 g a.i./ha): 100%; growth controlling degree, XANST ([10]; 125 g a.i./ha): 70%; growth controlling degree, AMARE ([17]; 63 g a.i./ha): 100%
4 | Fc1cc(Cl)c2c(c1-c1nn3c(c1Cl)CCCC3)CCCO2 [Compound 1-79, 3-chloro-2-(8-chloro-6-fluoro-3,4-dihydro-2H-1-benzopyran-5-yl)-4,5,6,7-tetrahydro-pyrazolo[1,5-a]pyridine] |  |  |  |  |  |  |  |  |  |  |  |  |  | 100 | 30 | 10 | 80 | 100 | 30 | 60 | pest or weed control at 31 g/ha [11]: 95%; plant injury at 31 g/ha [12]: 50%; plant injury at 31 g/ha [13]: 50%; pest or weed control at 31 g/ha [14]: 100%; pest or weed control at 31 g/ha [15]: 70%; pest or weed control at 31 g/ha [16]: 40%; growth controlling degree, AMARE ([17]; 31 g a.i./ha): 90%; pest or weed control at 31 g/ha [18]: 100%; pest or weed control at 31 g/ha [19]: 98%; pest or weed control at 31 g/ha [20]: 100%
5 | Fc1cc(Cl)c2c(c1-c1ncc(C(F)(F)F)cc1Cl)CCCO2 [Compound 7-2, 3-chloro-2-(8-chloro-6-fluoro-3,4-dihydro-2H-1-benzopyran-5-yl)-5-(trifluoromethyl)-pyridine] |  |  |  |  | 80 | 60 | 90 | 70 | 60 | 95 | 100 | 100 | 100 | 100 | 50 | 60 | 100 | 100 | 50 | 100 | growth controlling degree, SETVI ([3]; 250 g a.i./ha): 100%; growth controlling degree, DIGSP ([8]; 250 g a.i./ha): 100%; growth controlling degree, XANST ([10]; 250 g a.i./ha): 50%
